System: not given
Test: not given
Conditions: not given

| melting point | Compound |
| --- | --- |
| 78 to 80 °C | CCOC(=O)c1cc2cc(N)ccc2[se]1 |

System: SK-OV-3 cancer cells
Test: SK-OV-3 cancer cell proliferation inhibition (WST-1 assay)
Assay type: cell-based
Conditions: Homo sapiens, SK-OV-3, 72 h, read-out: Proliferation inhibition effect (10 nM; %)
Method: Meanwhile, in the present Example, proliferation inhibition effect of the compound in accordance with Comparative Example 1 and the compounds corresponding to Entry 59 to Entry 72 on SK-OV-3 cancer cells were checked, and a result thereof was as shown in [Table 5].
<Experiment Method of Proliferation Inhibition Effect>
SK-OV-3 cells floated on McCoy's 5A Medium in which 10% FBS and 1% P/S were added were inoculated into a 96-Well plate at a concentration of 3×10^4/100 μl per Well and cultured at 37° C. for 4 hours and then, treated with 100 μl of each compound, so that a final concentration of 10 nM was attained. Then, the cells were cultured at 37° C. for 72 hours. As a control, the cells were treated with DMSO as a solvent of the compounds to attain a final concentration of 0.1%. Each well was treated with 10 μl of a WST-1 assay reagent (iTSBio, Korea), and cultured at 37° C. for 2 hours. Then, absorbance was measured with an automatic Microplate Reader at 450 nm. A cell growth inhibition level was calculated by {(A450control−A450compound)/A450control}*100.

| Compound | inhibition at 0.01 µM |
| --- | --- |
| CCCC(=O)Nc1ccc2[se]c(C(=O)N3C[C@H]4C[C@@]45C3=CC(=O)c3ccccc35)cc2c1 [Entry 72] | 75% |
| COc1ccc2cc(C(=O)N3C[C@@H](CCl)c4c3cc(O)c3ccc(OC)cc43)[se]c2c1 [Entry 64] | 85% |
| COc1ccc2[se]c(C(=O)N3C[C@@H](CCl)c4c3cc(O)c3ccc(OC)cc43)cc2c1 [Entry 60, seco-MCBI-Methoxy-Selenophene] | 78% |
| COc1ccc2c(O)cc3c(c2c1)[C@H](CCl)CN3C(=O)c1cc2occc2[se]1 [Entry 69] | 73% |
| CCCC(=O)Nc1ccc2[se]c(C(=O)N3C[C@@H](CCl)c4c3cc(O)c3ccccc43)cc2c1 [Entry 71] | 73% |
| COc1ccc2c(O)cc3c(c2c1)[C@H](CCl)CN3C(=O)c1cc2cc(OC)c(OC)c(OC)c2[nH]1 [Comparative Example 1, seco-MCBI-TMI, reference compound] | 80% |
| COc1ccc2c(O)cc3c(c2c1)[C@H](CCl)CN3C(=O)c1cc2cc(OC)c(OC)cc2[se]1 [Entry 67] | 78% |
| COc1ccc2c(O)cc3c(c2c1)[C@H](CCl)CN3C(=O)c1cc2sccc2[se]1 [Entry 63] | 78% |
| COc1ccc2c(O)cc3c(c2c1)[C@H](CCl)CN3C(=O)c1cc2cc([N+](=O)[O-])ccc2[se]1 [Entry 59, seco-MCBI-Nitro-Selenophene] | 74% |
| COc1ccc2c(O)cc3c(c2c1)[C@H](CCl)CN3C(=O)c1cc2cccnc2[se]1 [Entry 68] | 82% |
| COc1ccc2c(c1)C13CC1CN(C(=O)c1cc4cc(NC(C)=O)ccc4[se]1)C3=CC2=O (stereo not drawn) [Entry 62] | 86% |
| CCCCCC(=O)Nc1ccc2[se]c(C(=O)N3C[C@@H](CCl)c4c3cc(O)c3ccc(OC)cc43)cc2c1 [Entry 66] | 87% |
| COc1ccc2c(O)cc3c(c2c1)[C@H](CCl)CN3C(=O)c1cc2cc(NC(C)=O)ccc2[se]1 [Entry 61, seco-MCBI-Acetamino-Selenophene] | 81% |

Same assay, conditions: Homo sapiens; SK-OV-3 cells, final concentration of 10 nM, cultured 72 hours, WST-1, absorbance 450 nm, vs DMSO control; read-out: Proliferation inhibition effect (10 nM; %)

| Compound | inhibition at 0.01 µM |
| --- | --- |
| COc1cc2cc(C(=O)N3C[C@@H](CCl)c4c3cc(O)c3ccccc43)[nH]c2c(OC)c1OC [Entry 70, CBI-TMI, reference compound] | 80% |

From US9365590B2, “Selenophene-fused aromatic compound and manufacturing method thereof” (Industry-Academia Cooperation Group of Sejong University, priority 2011, dated 2016)
